Results on 30 molecules are retold here after patent US8716281B2, “Pyrimidine compounds that inhibit anaplastic lymphoma kinase” (Amgen Inc., priority 2010, dated 2014).

The IC50 is the point on the concentration scale where inhibition reaches its midpoint.

Structures are written as SMILES.

The first test deals with T1, wild-type human ALK cytoplasmic domain (amino acids 1058-1620) (Homo sapiens, UniProt Q9UM73).
T1 construct: The cytoplasmic domain (amino acids 1058-1620) of wild-type human ALK; GST (N); made in house; host or cells: SF9 insect cells
T1 sequence (Q9UM73 1058-1620): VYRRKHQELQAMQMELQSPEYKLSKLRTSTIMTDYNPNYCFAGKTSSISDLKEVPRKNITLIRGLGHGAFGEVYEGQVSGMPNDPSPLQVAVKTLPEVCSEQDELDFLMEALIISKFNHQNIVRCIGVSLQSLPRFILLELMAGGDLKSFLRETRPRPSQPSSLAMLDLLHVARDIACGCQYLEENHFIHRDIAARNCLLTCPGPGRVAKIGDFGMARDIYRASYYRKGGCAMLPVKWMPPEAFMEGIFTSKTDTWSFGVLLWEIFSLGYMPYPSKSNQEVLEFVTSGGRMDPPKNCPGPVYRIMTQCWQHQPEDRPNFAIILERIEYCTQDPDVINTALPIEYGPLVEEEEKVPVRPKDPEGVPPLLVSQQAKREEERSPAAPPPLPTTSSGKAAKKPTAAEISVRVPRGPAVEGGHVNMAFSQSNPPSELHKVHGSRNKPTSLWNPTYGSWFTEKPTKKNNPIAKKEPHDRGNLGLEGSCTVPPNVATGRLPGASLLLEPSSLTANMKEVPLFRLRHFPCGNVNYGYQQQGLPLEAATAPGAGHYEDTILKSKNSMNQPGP
Briefly: ALK Inhibition in Enzyme Assay (Lance TR-FRET). It is filed as biochemical.
Conditions: not given
On the procedure:
ALK Inhibition in Enzyme Assay
Kinase activity of the purified protein was assessed using a Lance® TR-FRET assay. […] The reaction was allowed to proceed for 90 minutes at room temperature and was then terminated with 20 mM EDTA in 50 mM Tris (pH 7.5), 100 mM NaCl, 0.05% BSA, and 0.1% Tween-20. Phosphorylation of the peptide substrate was detected using the Lance® detection reagents streptavidin-allophycocyanin (SA-APC) and Eu-W1024 anti-phosphotyrosine antibody (PT66) from Perkin Elmer Life Sciences (Waltham, Mass.). The plates were read on a RUBY star plate reader (BMG LABTECH, Cary, N.C.) with an excitation wavelength of 320 nm.
On the technique in general: TR-FRET usually uses a lanthanide donor and a delayed reading to cut background.
In turn, `COc1cc(Nc2nccc(N3CCC[C@H](C(=O)NCc4ccc([N+](=O)[O-])cc4)C3)n2)cc(OC)c1OC` [Example 71, (S)-N-(4-nitrobenzyl)-1-(2-((3,4,5-trimethoxyphenyl)amino)-4-pyrimidinyl)-3-piperidinecarboxamide] returned a concentration for half-maximal inhibition (IC50) of 1000 to 5000 nM.

The same test, now with this note: 2 nM enzyme, ATP at 40 μM (Km apparent), 90 minutes, mean of three replicates; read-out: ALK IC50.
Turning to `COc1cc(Nc2nccc(N3CCC[C@H](C(=O)NC(C)c4ccc5[nH]ccc5c4)C3)n2)cc(OC)c1OC` (stereo partly drawn) [Example 45, (S)-N-(1-(1H-indol-5-yl)ethyl)-1-(2-((3,4,5-trimethoxyphenyl)amino)-4-pyrimidinyl)-3-piperidinecarboxamide], the IC50 was in the range of 100 to 1000 nM.
Same read-out and setting: the value for `COc1cc(Nc2nccc(N3CCC[C@H](C(=O)NCc4ccc(-n5cccn5)cc4)C3)n2)cc(OC)c1OC` [Example 46, (S)-N-(4-(1H-pyrazol-1-yl)benzyl)-1-(2-((3,4,5-trimethoxyphenyl)amino)-4-pyrimidinyl)-3-piperidinecarboxamide] was 1000 to 5000 nM; that for `COc1cc(Nc2nccc(N3CCC[C@H](C(=O)NCc4ccc(Br)cc4)C3)n2)cc(OC)c1OC` [Example 47, (S)-N-(4-bromobenzyl)-1-(2-((3,4,5-trimethoxyphenyl)amino)-4-pyrimidinyl)-3-piperidinecarboxamide] was 50 to 100 nM; that for `COc1cccc([C@@H](C)NC(=O)[C@H]2CCCN(c3ccnc(Nc4cc(OC)c(OC)c(OC)c4)n3)C2)c1` [Example 48, (S)-N-((R)-1-(3-methoxyphenyl)ethyl)-1-(2-((3,4,5-trimethoxyphenyl)amino)-4-pyrimidinyl)-3-piperidinecarboxamide] was 1000 to 5000 nM.
Consider `COc1cc(Nc2nccc(N3CCC[C@H](C(=O)NCc4ccccc4Br)C3)n2)cc(OC)c1OC` [Example 49, (S)-N-(2-bromobenzyl)-1-(2-((3,4,5-trimethoxyphenyl)amino)-4-pyrimidinyl)-3-piperidinecarboxamide], for which the concentration for half-maximal inhibition (IC50) was 1000 to 5000 nM.
Same read-out and setting: to `COc1cc(Nc2nccc(N3CCC[C@H](C(=O)NC(C)c4ccc(F)cc4)C3)n2)cc(OC)c1OC` (stereo partly drawn) [Example 51, (S)-N-(1-(4-fluorophenyl)ethyl)-1-(2-((3,4,5-trimethoxyphenyl)amino)-4-pyrimidinyl)-3-piperidinecarboxamide] belongs 100 to 1000 nM; to `COc1cc(Nc2nccc(N3CCC[C@H](C(=O)NC(C)c4ccc(O)cc4)C3)n2)cc(OC)c1OC` (stereo partly drawn) [Example 53, (S)-N-(1-(4-hydroxyphenyl)ethyl)-1-(2-((3,4,5-trimethoxyphenyl)amino)-4-pyrimidinyl)-3-piperidinecarboxamide], 5000 to 10000 nM.
The same measure, in the same setting: to `COc1cc(Nc2nccc(N3CCC[C@H](C(=O)NC(C)(C)c4ccccc4)C3)n2)cc(OC)c1OC` [Example 54, (S)-N-(1-methyl-1-phenylethyl)-1-(2-((3,4,5-trimethoxyphenyl)amino)-4-pyrimidinyl)-3-piperidinecarboxamide] belongs 1000 to 5000 nM; to `COc1cc(Nc2nccc(N3CCC[C@H](C(=O)NC(C)c4ccc(C)cc4)C3)n2)cc(OC)c1OC` (stereo partly drawn) [Example 55, (S)-N-(1-(4-methylphenyl)ethyl)-1-(2-((3,4,5-trimethoxyphenyl)amino)-4-pyrimidinyl)-3-piperidinecarboxamide], 100 to 1000 nM.
For the molecule `COc1cc(Nc2nccc(N3CCC[C@H](C(=O)NCc4ccc(Br)cc4F)C3)n2)cc(OC)c1OC` [Example 56, (S)-N-(4-bromo-2-fluorobenzyl)-1-(2-((3,4,5-trimethoxyphenyl)amino)-4-pyrimidinyl)-3-piperidinecarboxamide], the concentration for half-maximal inhibition (IC50) is under 50 nM.
The same measure, in the same setting: to `COc1cc(Nc2nccc(N3CCC[C@H](C(=O)NCc4ccc(F)cc4F)C3)n2)cc(OC)c1OC` [Example 57, (S)-N-(2,4-difluorobenzyl)-1-(2-((3,4,5-trimethoxyphenyl)amino)-4-pyrimidinyl)-3-piperidinecarboxamide] belongs 50 to 100 nM; to `COc1cc(Nc2nccc(N3CCC[C@H](C(=O)NCc4cc(Br)ccc4F)C3)n2)cc(OC)c1OC` [Example 58, (S)-N-(5-bromo-2-fluorobenzyl)-1-(2-((3,4,5-trimethoxyphenyl)amino)-4-pyrimidinyl)-3-piperidinecarboxamide], under 50 nM.
Still for that read-out and setting: the value for `COc1cc(Nc2nccc(N3CCC[C@H](C(=O)NCc4nc(C)cs4)C3)n2)cc(OC)c1OC` [Example 59, (S)-N-((4-methyl-1,3-thiazol-2-yl)methyl)-1-(2-((3,4,5-trimethoxyphenyl)amino)-4-pyrimidinyl)-3-piperidinecarboxamide] was 1000 to 5000 nM; that for `COc1cc(Nc2nccc(N3CCC[C@H](C(=O)NCCc4ccc(Br)cc4)C3)n2)cc(OC)c1OC` [Example 60, (S)-N-(2-(4-bromophenyl)ethyl)-1-(2-((3,4,5-trimethoxyphenyl)amino)-4-pyrimidinyl)-3-piperidinecarboxamide] was 50 to 100 nM; that for `COc1cc(Nc2nccc(N3CCC[C@H](C(=O)NCCc4cn5ccccc5n4)C3)n2)cc(OC)c1OC` [Example 61, (S)-N-(2-imidazo[1,2-a]pyridin-2-ylethyl)-1-(2-((3,4,5-trimethoxyphenyl)amino)-4-pyrimidinyl)-3-piperidinecarboxamide] was 5000 to 10000 nM.
Turning to `COc1cc(Nc2nccc(N3CCC[C@H](C(=O)NCCOc4ccccc4)C3)n2)cc(OC)c1OC` [Example 62, (S)-N-(2-phenoxyethyl)-1-(2-((3,4,5-trimethoxyphenyl)amino)-4-pyrimidinyl)-3-piperidinecarboxamide], the concentration for half-maximal inhibition (IC50) was in the range of 100 to 1000 nM.
On to `COc1cc(Nc2nccc(N3CCC[C@H](C(=O)NCc4ccc5ccsc5c4)C3)n2)cc(OC)c1OC` [Example 64, (S)-N-(1-benzothiophen-6-ylmethyl)-1-(2-((3,4,5-trimethoxyphenyl)amino)-4-pyrimidinyl)-3-piperidinecarboxamide], for which the 50% inhibitory concentration (IC50) lay within 100 to 1000 nM.
In the case of `COc1cc(Nc2nccc(N3CCC[C@H](C(=O)NCc4ccc(Cl)c(Cl)c4)C3)n2)cc(OC)c1OC` [Example 65, (S)-N-(3,4-dichlorobenzyl)-1-(2-((3,4,5-trimethoxyphenyl)amino)-4-pyrimidinyl)-3-piperidinecarboxamide], the half-inhibitory concentration (IC50) lay in the range of 100 to 1000 nM.
The same measure, in the same setting: to `COc1ccc(CNC(=O)[C@H]2CCCN(c3ccnc(Nc4cc(OC)c(OC)c(OC)c4)n3)C2)cc1OC` [Example 66, (S)-N-(3,4-dimethoxybenzyl)-1-(2-((3,4,5-trimethoxyphenyl)amino)-4-pyrimidinyl)-3-piperidinecarboxamide] belongs 1000 to 5000 nM; to `COc1cc(Nc2nccc(N3CCC[C@H](C(=O)NCc4ccc(F)c(F)c4)C3)n2)cc(OC)c1OC` [Example 67, (S)-N-(3,4-difluorobenzyl)-1-(2-((3,4,5-trimethoxyphenyl)amino)-4-pyrimidinyl)-3-piperidinecarboxamide], 100 to 1000 nM; to `COc1cc(Nc2nccc(N3CCC[C@H](C(=O)NCc4ccc(F)c(Cl)c4)C3)n2)cc(OC)c1OC` [Example 68, (S)-N-(3-chloro-4-fluorobenzyl)-1-(2-((3,4,5-trimethoxyphenyl)amino)-4-pyrimidinyl)-3-pipcridinecarboxamide], 100 to 1000 nM.
In the case of `COc1cc(Nc2nccc(N3CCC[C@H](C(=O)NCc4ccc(C(C)(C)C)cc4)C3)n2)cc(OC)c1OC` [Example 70, (S)-N-(4-tert-butylbenzyl)-1-(2-((3,4,5-trimethoxyphenyl)amino)-4-pyrimidinyl)-3-piperidinecarboxamide], the half-inhibitory concentration (IC50) was under 50 nM.
Still for that read-out and setting: to `COc1cc(Nc2nccc(N3CCC[C@H](C(=O)NCc4ccc(Oc5ccc(F)cc5)cc4)C3)n2)cc(OC)c1OC` [Example 72, (S)-N-(4-(4-fluorophenoxy)benzyl)-1-(2-((3,4,5-trimethoxyphenyl)amino)-4-pyrimidinyl)-3-piperidinecarboxamide] belongs 100 to 1000 nM.
The same measure, in the same setting: the value for `COc1cc(Nc2nccc(N3CCC[C@H](C(=O)NCc4ccc5c(c4)CCCN5C)C3)n2)cc(OC)c1OC` [Example 73, (S)-N-((1-methyl-1,2,3,4-tetrahydro-6-quinolinyl)methyl)-1-(2-((3,4,5-trimethoxyphenyl)amino)-4-pyrimidinyl)-3-piperidinecarboxamide] was 1000 to 5000 nM; that for `COc1cc(Nc2nccc(N3CCC[C@H](C(=O)NCc4ccc(C)c(Cl)c4)C3)n2)cc(OC)c1OC` [Example 74, (S)-N-(3-chloro-4-methylbenzyl)-1-(2-((3,4,5-trimethoxyphenyl)amino)-4-pyrimidinyl)-3-piperidinecarboxamide] was 100 to 1000 nM; that for `COc1cc(Nc2nccc(N3CCC[C@H](C(=O)NCc4ccc(OC(F)F)cc4)C3)n2)cc(OC)c1OC` [Example 75, (S)-N-(4-(difluoromethoxy)benzyl)-1-(2-((3,4,5-trimethoxyphenyl)amino)-4-pyrimidinyl)-3-piperidinecarboxamide] was under 50 nM.
Still for that read-out and setting: the value for `COc1cc(Nc2nccc(N3CCC[C@H](C(=O)NCc4ccc5[nH]c(C)cc5c4)C3)n2)cc(OC)c1OC` [Example 76, (S)-N-((2-methyl-1H-indol-5-yl)methyl)-1-(2-((3,4,5-trimethoxyphenyl)amino)-4-pyrimidinyl)-3-piperidinecarboxamide] was 50 to 100 nM; that for `COc1cc(Nc2nccc(N3CCC[C@H](C(=O)NCc4ccc5c(c4)OCCO5)C3)n2)cc(OC)c1OC` [Example 77, (S)-N-(2,3-dihydro-1,4-benzodioxin-6-ylmethyl)-1-(2-((3,4,5-trimethoxyphenyl)amino)-4-pyrimidinyl)-3-piperidinecarboxamide] was 1000 to 5000 nM.
With `COc1cc(Nc2nccc(N3CCC[C@H](C(=O)NCc4ccc(N5CCOCC5)cc4)C3)n2)cc(OC)c1OC` [Example 78, (S)-N-(4-(4-morpholinyl)benzyl)-1-(2-((3,4,5-trimethoxyphcnyl)amino)-4-pyrimidinyl)-3-piperidinecarboxamide], the IC50 is 1000 to 5000 nM.
